Positions of bridges follow the written chain, without caps; N, C: chain ends. No end group written: not given here.
Tests used:
MRGPRX1 = MRGPRX1 (Homo sapiens, UniProt Q96LB2); test: FLIPR calcium imaging, HEK293 expressing MRGPRX1; format: cell-based; details: SEM
Mrgpra1 = target: T1, Mrgpra1 (Mus musculus, UniProt Q91WW5); test: FLIPR calcium imaging, HEK293 expressing Mrgpra1; format: cell-based; details: SEM
T1 sequence (Q91WW5 1-304): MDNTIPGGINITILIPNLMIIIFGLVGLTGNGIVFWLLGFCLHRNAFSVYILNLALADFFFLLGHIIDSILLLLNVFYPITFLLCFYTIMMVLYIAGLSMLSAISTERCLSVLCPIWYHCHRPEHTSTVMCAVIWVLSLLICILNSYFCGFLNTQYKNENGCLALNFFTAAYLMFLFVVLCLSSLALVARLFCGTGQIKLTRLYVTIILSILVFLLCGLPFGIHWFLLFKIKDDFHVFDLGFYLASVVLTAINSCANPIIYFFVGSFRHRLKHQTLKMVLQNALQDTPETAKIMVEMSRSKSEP

Mrgpra3 = target: T2, Mrgpra3 (Mus musculus, UniProt Q91WW3); test: FLIPR calcium imaging, HEK293 expressing Mrgpra3; format: cell-based
T2 sequence (Q91WW3 1-302): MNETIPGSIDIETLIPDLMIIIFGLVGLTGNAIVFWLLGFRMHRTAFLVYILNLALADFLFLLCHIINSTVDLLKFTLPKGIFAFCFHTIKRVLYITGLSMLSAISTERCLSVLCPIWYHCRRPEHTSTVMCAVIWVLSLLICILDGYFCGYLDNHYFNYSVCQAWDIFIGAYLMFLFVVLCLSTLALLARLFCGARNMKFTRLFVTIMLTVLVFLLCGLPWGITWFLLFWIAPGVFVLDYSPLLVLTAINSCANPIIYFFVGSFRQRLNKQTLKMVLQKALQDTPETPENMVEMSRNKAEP

Mrgprb2 = target: T3, Mrgprb2 (Mus musculus, UniProt Q3KNA1); test: FLIPR calcium imaging, HEK293 expressing Mrgprb2; format: cell-based
T3 sequence (Q3KNA1 1-338): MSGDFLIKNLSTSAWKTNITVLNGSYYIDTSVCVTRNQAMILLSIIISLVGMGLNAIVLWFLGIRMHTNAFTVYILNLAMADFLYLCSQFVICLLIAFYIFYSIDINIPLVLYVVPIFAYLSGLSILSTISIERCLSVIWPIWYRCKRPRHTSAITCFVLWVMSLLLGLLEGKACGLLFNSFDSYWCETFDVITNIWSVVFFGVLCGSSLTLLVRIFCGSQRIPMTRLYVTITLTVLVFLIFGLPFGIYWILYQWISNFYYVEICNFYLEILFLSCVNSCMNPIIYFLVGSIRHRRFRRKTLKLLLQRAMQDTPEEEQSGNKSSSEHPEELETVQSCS

Mrgpra2b = target: T4, Mrgpra2b (Mus musculus, UniProt Q91WW4); test: FLIPR calcium imaging, HEK293 expressing Mrgpra2b; format: cell-based
T4 sequence (Q91WW4 1-305): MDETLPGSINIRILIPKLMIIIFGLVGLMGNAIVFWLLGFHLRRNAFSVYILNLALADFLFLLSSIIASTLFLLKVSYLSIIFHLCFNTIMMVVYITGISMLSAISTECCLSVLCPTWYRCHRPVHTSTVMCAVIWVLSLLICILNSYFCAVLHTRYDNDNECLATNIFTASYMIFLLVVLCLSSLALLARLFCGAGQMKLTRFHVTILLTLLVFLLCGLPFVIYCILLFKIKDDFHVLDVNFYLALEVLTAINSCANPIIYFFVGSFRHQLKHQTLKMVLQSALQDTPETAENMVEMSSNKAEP

Mrgprc11 = target: T5, Mrgprc11 (Mus musculus, UniProt Q8CIP3); test: FLIPR calcium imaging, HEK293 expressing Mrgprc11; format: cell-based
T5 sequence (Q8CIP3 1-322): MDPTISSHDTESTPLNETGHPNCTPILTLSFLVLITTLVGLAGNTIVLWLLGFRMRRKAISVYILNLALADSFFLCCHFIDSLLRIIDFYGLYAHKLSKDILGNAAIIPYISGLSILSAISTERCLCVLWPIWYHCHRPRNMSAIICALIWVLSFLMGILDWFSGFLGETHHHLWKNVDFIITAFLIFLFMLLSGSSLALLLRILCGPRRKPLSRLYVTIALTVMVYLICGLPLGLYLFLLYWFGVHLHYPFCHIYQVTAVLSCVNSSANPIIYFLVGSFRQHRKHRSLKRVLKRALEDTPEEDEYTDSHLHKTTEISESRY

mice = test: Itch behavior: scratching bouts after intradermal injection; format: in vivo, mouse; details: for itch-responses (scratching bouts): mice, intradermal injection 1mM, 10μL, versus saline, n=8-12
DRG neurons = test: Calcium imaging of cultured DRG neurons; format: cell-based, mouse; details: 352 neurons imaged
Mrgpra3-Cre-GFP neurons = test: Whole-cell patch-clamp recording of Mrgpra3-Cre-GFP neurons; format: cell-based, mouse; details: n=8/8
MRGPRX2 = target: T6, MRGPRX2 (Homo sapiens, UniProt Q96LB1); test: FLIPR calcium imaging, HEK293 expressing MRGPRX2; format: cell-based; details: SEM
T6 sequence (Q96LB1 1-330): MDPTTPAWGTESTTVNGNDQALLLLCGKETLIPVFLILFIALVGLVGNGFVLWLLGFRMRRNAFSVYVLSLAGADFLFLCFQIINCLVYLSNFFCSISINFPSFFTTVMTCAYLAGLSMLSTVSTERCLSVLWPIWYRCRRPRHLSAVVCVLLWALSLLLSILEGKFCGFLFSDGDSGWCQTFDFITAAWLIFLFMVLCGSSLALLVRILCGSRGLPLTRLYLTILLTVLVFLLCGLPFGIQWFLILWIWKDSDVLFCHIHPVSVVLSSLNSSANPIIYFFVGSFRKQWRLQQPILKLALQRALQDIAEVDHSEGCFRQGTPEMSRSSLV

MRGPRX3 = MRGPRX3 (Homo sapiens, UniProt Q96LB0); test: FLIPR calcium imaging, HEK293 expressing MRGPRX3; format: cell-based
MRGPRX3, sequence (Q96LB0 whole entry): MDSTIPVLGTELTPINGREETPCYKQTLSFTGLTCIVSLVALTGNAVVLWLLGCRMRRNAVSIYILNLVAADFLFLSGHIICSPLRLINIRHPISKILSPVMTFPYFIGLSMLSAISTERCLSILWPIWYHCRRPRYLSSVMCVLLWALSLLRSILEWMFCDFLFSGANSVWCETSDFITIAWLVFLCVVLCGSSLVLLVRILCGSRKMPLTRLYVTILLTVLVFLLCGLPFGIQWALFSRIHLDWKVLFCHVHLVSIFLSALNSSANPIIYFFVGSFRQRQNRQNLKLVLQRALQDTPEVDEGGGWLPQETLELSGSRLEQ

MRGPRX1, sequence (Q96LB2 whole entry): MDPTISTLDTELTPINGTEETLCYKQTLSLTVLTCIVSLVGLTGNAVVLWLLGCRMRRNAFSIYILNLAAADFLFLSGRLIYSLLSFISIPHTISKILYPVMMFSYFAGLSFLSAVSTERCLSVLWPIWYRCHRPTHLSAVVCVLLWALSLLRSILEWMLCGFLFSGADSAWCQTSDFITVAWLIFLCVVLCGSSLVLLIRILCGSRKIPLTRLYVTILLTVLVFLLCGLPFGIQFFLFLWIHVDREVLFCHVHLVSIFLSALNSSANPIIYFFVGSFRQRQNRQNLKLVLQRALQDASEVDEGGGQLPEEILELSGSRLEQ

Compound	EC50 (MRGPRX1)	EC50 (Mrgpra1)	EC50 (Mrgprb2)	itch-responses (scratching bouts) (mice)	EC50 (MRGPRX2)	further results
FLPKTLRKFFCRIRGGRCAVLNCLGKEEQIGRCSNSGRKCCRKKK (disulfide 11-40, 18-33, 23-41) [Defb14]	610 ± 170 nM	620 ± 160 nM	1700 ± 450 nM	evoked the most intense itch phenotype		EC50 (Mrgpra3): 1000 ± 180 nM; EC50 (Mrgpra2b): 19400 ± 8600 nM; EC50 (Mrgprc11): 21600 ± 11700 nM; Defb14 induced scratching in mast-cell deficient mice (mice; Mcpt5-Cre::Rosa-stop-DTA mice versus wild-type controls, 1mM, p=0.87): did not attenuate; scratching responses in mice with ablated Mrgpra3-neurons (mice; Mrgpra3-Cre::Rosa-stop-DTA mice (n=14) versus controls (n=12), 1mM, p=0.007): significantly attenuated; Defb14-responsive neurons that responded to CQ (DRG neurons; cultured mouse DRG neurons, AAV9-GCaMP6f): 46/55; calcium response of DRG neurons (DRG neurons; dissociated mouse DRG neurons expressing GCaMP6f): induced calcium increases in DRG neurons; action potential discharges in Mrgpra3-Cre-GFP neurons (Mrgpra3-Cre-GFP neurons; 1μM): evoked action potential discharges
GIINTLQKYYCRVRGGRCAVLSCLPKEEQIGKCSTRGRKCCRRKK (disulfide 11-40, 18-33, 23-41) [DEFB103]	280 ± 50 nM				420 ± 110 nM	EC50 (MRGPRX3): 7400 ± 1900 nM; activation of LAD2 cells, calcium imaging (LAD2 cells; peptide 1μM, compared with DEFB4): activated more LAD2 cells and evoked stronger calcium influx than the DEFB4; potency of DEFB103 relative to DEFB4 in LAD2 cells (LAD2 cells; ratio of EC50s, LAD2 calcium imaging): about 10 fold
GIGDPVTCLKSGAICHPVFCPRRYKQIGTCGLPGTKCCKKP (disulfide 8-37, 15-30, 20-38) [DEFB4]	58300 ± 18000 nM				17500 ± 3800 nM	
CCN(CC)CCCC(C)Nc1ccnc2cc(Cl)ccc12 (stereo not drawn) [CQ, chloroquine, reference compound]						action potential discharges in Mrgpra3-Cre-GFP neurons (Mrgpra3-Cre-GFP neurons; 100μM): evoked action potential discharges
KKINNPVSCLRKGGRCWNRCIGNTRQIGSCGVPFLKCCKRK (disulfide 9-37, 16-30, 20-38) [Defb3]		2700 ± 600 nM	11500 ± 3500 nM	evoked a strong itch phenotype		
Defb1: recombinant mouse β-defensin, constitutively highly expressed in skin (DQYKCLQHGGFCLRSSCPSNTKLQGTCKPDKPNCCKS; ends and bridges not checked; cysteine pairing not given here; UniProt P56386 33-69, looked up)				not significantly different from saline injection		
